Reference: patent US7884242B2, “N-heterocyclylphthaldiamides as insecticides” (Bayer CropScience AG, priority 2004, dated 2011)

Experiments:
[1] = log P determination by HPLC on reverse phase column, pH 2.3; assay type: physicochemical; details: reverse phase HPLC column (C 18), reverse phase column (C 18), pH 2.3, 43° C.
Method: The determination of the log P values given in the above table and preparation examples is carried out in accordance with EEC directive 79/831 Annex V.A8 by HPLC (High Performance Liquid Chromatography) on a reverse phase column (C 18). Temperature: 43° C. The determination is carried out under acidic conditions at pH 2.3 with 0.1% aqueous phosphoric acid and acetonitrile as eluents; linear gradient of 10% acetonitrile to 95% acetonitrile. Calibration was is carried out with unbranched alkan-2-ones (with 3 to 16 carbon atoms) of known log P values (Determination of log P values by the retention times by linear interpolation between two sequential alkanones).

[2] = tested on: green peach aphid (Myzus persicae); assay: Myzus test (spray treatment); assay type: in vivo; details: for pest or weed control at 100 g/ha: Myzus persicae, in Brassica oleracea, 120 h, spray treatment, China cabbage slices, after 5 d, read-out: Death rate in % after 5d; for activity in Myzus test (spray treatment): statement in words
Method: [table] For the preparation of a suitable active compound formulation 1 part by weight of the active compound is mixed with the above amounts of solvent and emulsifier and the concentrate is diluted to the desired concentration with water containing emulsifier. China cabbage slices (Brassica pekinensis) that are infected with all stages of the green peach aphid (Myzus persicae) are sprayed with an active compound preparation at the desired concentration. After the desired time the activity in % is determined. Here 100% means that all aphids were killed; 0% means that no aphids were killed.

[3] = tested on: larvae of the mustard leaf beetle (Phaedon cochleariae); assay: Phaedon test (spray treatment); assay type: in vivo; details: for activity in Phaedon test (spray treatment): statement in words
Method: (§1) [table] For the preparation of a suitable active compound formulation 1 part by weight of the active compound is mixed with the above amounts of solvent and emulsifier and the concentrate is diluted to the desired concentration with water containing emulsifier. China cabbage slices (Brassica pekinensis) are sprayed with an active compound preparation of the desired composition and after drying infected with larvae of the mustard leaf beetle (Phaedon cochleariae). After the desired time the activity in % is determined. Here 100% means that all beetle larvae were killed; 0% means that no beetle larvae were killed.

[4] = tested on: caterpillars of the fall army worm (Spodoptera frugiperda); assay: Spodoptera frugiperda test (spray treatment); assay type: in vivo; details: for pest or weed control at 4 g/ha: Spodoptera frugiperda, 168 h, spray treatment, maize leaf sections, after 7 d, read-out: Death rate in % after 7d; for activity in Spodoptera frugiperda test (spray treatment): statement in words
Method: as §1, with “Maize leaf sections (Zea mays)” for “China cabbage slices (Brassica pekinensis)”, “concentration” for “composition”, “caterpillars” for “larvae”, “fall army worm (Spodoptera frugiperda).” for “mustard leaf beetle (Phaedon cochleariae).”, “caterpillars” for “beetle larvae”

[5] = tested on: caterpillars of the beet army worm (Spodoptera exigua); assay: Spodoptera exigua test (resistant strain); assay type: in vivo; details: for Death rate in % after 7d: resistant strain, cabbage leaves dipped; for activity in Spodoptera exigua test (resistant strain): statement in words
Method: [table] For the preparation of a suitable active compound formulation 1 part by weight of the active compound is mixed with the above amounts of solvent and emulsifier and the concentrate is diluted to the desired concentration with water containing emulsifier. Cabbage leaves (Brassica oleracea) are treated by dipping in the active compound preparation at the desired concentration and infected with caterpillars of the beet army worm (Spodoptera exigua) while the leaves are still moist. After the desired time the death rate in % is determined. Here 100% means that all caterpillars were killed; 0% means that no caterpillars were killed.

[6] = tested on: green peach aphid (Myzus persicae); assay: Myzus persicae test; hydroponic treatment; assay type: in vivo; details: for Death rate in % after 6d: 20 ppm in water, hydroponic treatment, pea plant; for activity in Myzus persicae test; hydroponic treatment: statement in words
Method: [table] For the preparation of a suitable active compound formulation 1 part by weight of the active compound is mixed with the above amounts of solvent and emulsifier and the concentrate is diluted to the desired concentration with water. The active compound preparation is mixed with water. The concentration given refers to the amount of active compound per unit volume of water (mg/l=ppm). The treated water is placed in a vessel with a pea plant (Pisum sativum) which is then infection with the green peach aphid (Myzus persicae) is carried out. After the desired time the death rate in % is determined. Here 100% means that all aphids were killed, 0% means that no aphids were killed.

[7] = tested on: two-spotted spider mite (Tetranychus urticae); assay: Tetranychus Test OP resistant; assay type: in vivo
Method: [table] For the preparation of a suitable active compound formulation 1 part by weight of the active compound is mixed with the above amounts of solvent and emulsifier and the concentrate is diluted to the desired concentration with water containing emulsifier. Bean leaf slices (Phaseolus vulgaris) that are infested by all stages of the two-spotted spider mite (Tetranychus urticae) are sprayed with an active substance preparation at the desired concentration. After the desired time the action in % is determined. Here 100% means that all spider mites were killed; 0% means that no spider mites were killed.

[8] = tested on: caterpillars of the diamond back moth (Plutella xylostella); assay: Plutella test; assay type: in vivo
Method: [table] For the preparation of a suitable active compound formulation 1 part by weight of the active compound is mixed with the above amounts of solvent and emulsifier and the concentrate is diluted to the desired concentration with water containing emulsifier. Cabbage leaves (Brassica oleracea) are treated by dipping into the active compound preparation of the desired concentration and infected with caterpillars of the diamond back moth (Plutella xylostella) while the leaves were still wet. After the desired time the death rate is determined as %. Here 100% means that all caterpillars were killed; 0% means no caterpillars were killed.

[9] = tested on: caterpillars of the cotton boll worm (Heliothis armigera); assay: Heliothis armigera test; assay type: in vivo
Method: [table] For the preparation of a suitable active compound formulation 1 part by weight of the active compound is mixed with the above amounts of solvent and emulsifier and the concentrate is diluted to the desired concentration with water containing emulsifier. Soy bean leaves (Glycine max.) are treated by dipping into the active compound preparation at the desired concentration and infected with the caterpillars of the cotton boll worm (Heliothis armigera), while the leaves are still wet. After the desired time the death rate in % is determined. Here 100% means that all caterpillars were killed; 0% means that no caterpillars were killed.

[10] = log P determination with LC-MS under acidic conditions, pH 2.7; assay type: physicochemical; details: reverse phase HPLC column (C 18)
Method: The determination of the log P values given in the above table and preparation examples is carried out in accordance with EEC directive 79/831 Annex V.A8 by HPLC (High Performance Liquid Chromatography) on a reverse phase column (C 18). Temperature: 43° C. The determination with LC-MS under acidic conditions is carried out at pH 2.7 with 0.1% aqueous formic acid and acetonitrile (contains 01% formic acid) as eluents; linear gradient from 10% acetonitrile to 95% acetonitrile. Calibration was is carried out with unbranched alkan-2-ones (with 3 to 16 carbon atoms) of known log P values (Determination of log P values by the retention times by linear interpolation between two sequential alkanones).

[11] = Phaedon cochleariae, 168 h, spray treatment, China cabbage slices, after 7 d, read-out: Death rate in % after 7d

Compound | chromatographic logP [1] | pest or weed control at 100 g/ha [2] | activity in Myzus test (spray treatment) [2] | activity in Phaedon test (spray treatment) [3] | pest or weed control at 4 g/ha [4] | activity in Spodoptera frugiperda test (spray treatment) [4] | also measured
Cc1nc(Cn2nc(C(F)(F)F)cc2C(F)(F)F)ccc1NC(=O)c1cccc(Cl)c1C(=O)N[C@@H](C)CS(C)(=O)=O [Example 9] | 2.69 | 100% | good activity | good activity | 100% | good activity | pest or weed control at 100 g/ha ([3]; Phaedon cochleariae, 168 h, 100 g/ha, spray treatment, China cabbage slices, after 7 d, read-out: Death rate in % after 7d): 100%; Death rate in % after 7d ([5]; 0.8 ppm): 80%; activity in Spodoptera exigua test (resistant strain) [5]: good activity
Cc1nc(Cn2nc(C(F)(F)F)cc2C(F)(F)F)ncc1NC(=O)c1cccc(I)c1C(=O)N[C@@H](C)C[S+](C)[O-] (stereo partly drawn) [Example 24] | 2.27 | 100% | good activity |  | 83% | good activity | Death rate in % after 6d [6]: 95%; activity in Myzus persicae test; hydroponic treatment [6]: good activity
Cc1nc(Cn2nc(C(F)(F)F)nc2C(F)(F)F)ncc1NC(=O)c1cccc(I)c1C(=O)N[C@@H](C)CS(C)(=O)=O [Example 41] | 2.54 | 90% | good activity |  |  |  | Death rate in % after 6d [6]: 95%; activity in Myzus persicae test; hydroponic treatment [6]: good activity
CSC[C@H](C)NC(=O)c1c(Cl)cccc1C(=O)Nc1cnc(Cn2cc(C(F)(F)C(F)(F)F)c(C(F)(F)C(F)(F)F)n2)nc1C [Example 64] | 4.11 | 100% | good activity | good activity | 100% | good activity | pest or weed control at 4 g/ha [3, 11]: 100%; Death rate in % after 5d ([7]; 100 g/ha, OP resistant, bean leaf slices sprayed, after 5 d): 100%; activity in Tetranychus Test OP resistant ([7]; statement in words): good activity
Cc1nc(Cn2cc(C(F)(F)C(F)(F)F)c(C(F)(F)C(F)(F)F)n2)ncc1NC(=O)c1cccc(Cl)c1C(=O)N[C@@H](C)CS(C)(=O)=O [Example 66] | 3.29 | 100% | good activity | good activity | 100% | good activity | pest or weed control at 4 g/ha [3, 11]: 100%; Death rate in % after 7d ([8]; 0.8 ppm, cabbage leaves dipped, after 7 d): 100%; activity in Plutella test ([8]; statement in words): good activity; Death rate in % after 7d ([5]; 4 ppm): 100%; activity in Spodoptera exigua test (resistant strain) [5]: good activity; Death rate in % after 7d ([9]; 0.8 ppm, soy bean leaves dipped, after 7 d): 80%; activity in Heliothis armigera test ([9]; statement in words): good activity
Cc1nc(Cn2nc(C(F)(F)F)cc2C(F)(F)F)ccc1[N+](=O)[O-] [IV-1, 6-{[3,5-bis(trifluoromethyl)-1H-pyrazol-1-yl]methyl}-2-methyl-3-nitropyridine] |  |  |  |  |  |  | chromatographic logP [10]: 3.8
Cc1nc(CBr)ccc1[N+](=O)[O-] [VII-1, 6-(bromomethyl)-2-methyl-3-nitropyridine] |  |  |  |  |  |  | chromatographic logP [10]: 2.2
